Like-named read-outs stand apart in the source and are kept apart here.
What was measured:
[1] = tested on: fibrin-induced microglia activation; experiment: Image-based assay of fibrin-induced microglia activation (HTS and dose response); format: cell-based, rat; conditions: for inhibition at 10 µM: Rattus norvegicus, Microglia, read-out: Fibrin % inhibition
[2] = tested on: LPS-induced microglia activation; experiment: Image-based assay of LPS-induced microglia activation (HTS and dose response); format: cell-based, rat
[3] = tested on: fibrin- and LPS-induced microglia activation; experiment: cells; format: cell-based, rat
primary rat microglia [4] = tested on: primary rat microglia;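 as to Fibrin % cell toxicity: share of dead cells sized under 150 µm2 at 10 µM in fibrin-stimulated microglia HTS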
primary rat microglia [5] = tested on: primary rat microglia; remark: listed apart in the source;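 as to Fibrin % cell toxicity: share of dead cells sized under 150 µm2 at 10 µM in fibrin-stimulated microglia HTS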
[6] = primary microglia HTS, fibrin stimulation, compounds at 10 μM
[7] = Rattus norvegicus, Microglia, primary microglia HTS, LPS stimulation, compounds at 10 μM; read-out: LPS % inhibition
[8] = classification by fibrin and LPS inhibition, HTS at 10 μM
[9] = quadrant by fibrin and LPS inhibition, HTS at 10 μM
[10] = primary microglia HTS, 10 μM, fibrin-stimulated, cell size >800 μm^2 as marker of activation
[11] = Rattus norvegicus, Microglia, primary microglia HTS, 10 μM, LPS-stimulated, cell size >800 μm^2 as marker of activation; read-out: LPS % inhibition
[12] = HTS of 1907 compounds, quadrant by fibrin and LPS inhibition
[13] = Rattus norvegicus, Microglia, read-out: LPS % inhibition
[14] = primary microglia HTS, fibrin stimulation, cell size >800 μm2 as marker of activation
[15] = Rattus norvegicus, Microglia, 48 h; read-out: LPS % inhibition
[16] = classification by fibrin and LPS inhibition in HTS
[17] = Rattus norvegicus, Microglia, 48 h, read-out: LPS % inhibition
[18] = primary HTS, 10 μM, fibrin-stimulated primary microglia
[19] = Rattus norvegicus, Microglia, primary HTS, 10 μM, LPS-stimulated primary microglia; read-out: LPS % inhibition

SMILES: O=C(O)c1cc(-c2ccc(F)cc2F)ccc1O [Diflunisal]
- inhibition at 10 µM [1, 6]: -62%
- inhibition at 10 µM [2, 7]: 15%
- Quadrant (FIG. 5b) [3, 8]: Q4
- Fibrin % cell toxicity (primary rat microglia [4]; rat): 0%
- LPS % cell toxicity (primary rat microglia [5]; rat): 0%

SMILES: Cc1cc(=O)oc2cc(O)ccc12 [7-hydroxy-4-methyl-2H-chromen-2-one]
- inhibition at 10 µM [1, 6]: 12%
- inhibition at 10 µM [2, 7]: 4%
- Quadrant (FIG. 5b) [3, 9]: Q4
- Fibrin % cell toxicity (primary rat microglia [4]; rat): 0%
- LPS % cell toxicity (primary rat microglia [5]; rat): 0%

SMILES: O=C1CN=C(c2ccccc2)c2cc([N+](=O)[O-])ccc2N1 [Nitrazepam]
- inhibition at 10 µM ([1]; primary microglia HTS, fibrin stimulation, increased cell size (>800 μm^2) as marker of activation): -1%
- inhibition at 10 µM ([2]; Rattus norvegicus, Microglia, 48 h, primary microglia HTS, LPS stimulation; increased cell size (>800 μm^2) as marker of activation; read-out: LPS % inhibition): -4%
- Quadrant (FIG. 5b) ([3]; quadrant by fibrin and LPS inhibition in HTS of 1907 compounds): Q4
- Fibrin % cell toxicity (primary rat microglia [4]; rat): 1%
- LPS % cell toxicity (primary rat microglia [5]; rat): 0%

SMILES: Cc1ccc(/C(=C\CN2CCCC2)c2ccccn2)cc1 [Triprolidine]
- inhibition at 10 µM [1, 10]: -24%
- inhibition at 10 µM [2, 11]: 23%
- Quadrant (FIG. 5b) [3, 12]: Q4
- Fibrin % cell toxicity (primary rat microglia [4]; rat): 1%
- LPS % cell toxicity (primary rat microglia [5]; rat): 0%

SMILES: O=C(O)CCCC[C@@H]1SC[C@@H]2NC(=O)N[C@@H]21 [Biotin]
- inhibition at 10 µM [1]: 24%
- inhibition at 10 µM [2, 13]: 12%
- Quadrant (FIG. 5b) [3]: Q4
- Fibrin % cell toxicity (primary rat microglia [4]; rat): 1%
- LPS % cell toxicity (primary rat microglia [5]; rat): 0%

SMILES: CC(C)(S)[C@@H](N)C(=O)O [Penicillamine]
- inhibition at 10 µM [1, 14]: -15%
- inhibition at 10 µM [2, 15]: 16%
- Quadrant (FIG. 5b) [3, 16]: Q4
- Fibrin % cell toxicity (primary rat microglia [4]; rat): 0%
- LPS % cell toxicity (primary rat microglia [5]; rat): 0%

SMILES: O=C(NCC(O)CO)c1c(I)c(C(=O)NCC(O)CO)c(I)c(N(CCO)C(=O)CO)c1I (stereo not drawn) [Ioversol]
- inhibition at 10 µM [1]: -1%
- inhibition at 10 µM [2, 17]: 18%
- Quadrant (FIG. 5b) [3]: Q4
- Fibrin % cell toxicity (primary rat microglia [4]; rat): 1%
- LPS % cell toxicity (primary rat microglia [5]; rat): 1%

SMILES: C=CCN1CC[C@]23c4c5ccc(O)c4O[C@H]2C(=O)CC[C@@]3(O)[C@H]1C5 [Naloxone]
- Fibrin % inhibition [1]: −41%
- inhibition at 10 µM [2, 17]: 21%
- Quadrant (FIG. 5b) [3]: Q4
- Fibrin % cell toxicity (primary rat microglia [4]; rat): 1%
- LPS % cell toxicity (primary rat microglia [5]; rat): 1%

SMILES: CC(C)COCC(CN(Cc1ccccc1)c1ccccc1)N1CCCC1 (stereo not drawn) [Bepridil]
- inhibition at 10 µM [1, 18]: 1%
- inhibition at 10 µM [2, 19]: 15%
- Quadrant (FIG. 5b) ([3]; primary HTS, 10 μM): Q4
- Fibrin % cell toxicity (primary rat microglia [4]; rat): 1%
- LPS % cell toxicity (primary rat microglia [5]; rat): 0%

SMILES: O=c1n(Cl)c(=O)n(Cl)c(=O)n1Cl [Symclosene]
- inhibition at 10 µM [1, 10]: -13%
- inhibition at 10 µM [2, 11]: 11%
- Quadrant (FIG. 5b) [3, 12]: Q4
- Fibrin % cell toxicity (primary rat microglia [4]; rat): 0%
- LPS % cell toxicity (primary rat microglia [5]; rat): 0%

SMILES: CC(C[N+](C)(C)C)OC(N)=O (stereo not drawn) [Bethanechol]
- inhibition at 10 µM [1, 18]: 14%
- inhibition at 10 µM [2, 19]: 15%
- Quadrant (FIG. 5b) ([3]; primary HTS, 10 μM): Q4
- Fibrin % cell toxicity (primary rat microglia [4]; rat): 1%
- LPS % cell toxicity (primary rat microglia [5]; rat): 0%

SMILES: CCCCOCCOCCOCc1cc2c(cc1CCC)OCO2 [Piperonyl Butoxide]
- inhibition at 10 µM [1]: 0%
- inhibition at 10 µM [2, 17]: 12%
- Quadrant (FIG. 5b) [3]: Q4
- Fibrin % cell toxicity (primary rat microglia [4]; rat): 0%
- LPS % cell toxicity (primary rat microglia [5]; rat): 0%

SMILES: CC(COc1ccccc1)N(CCCl)Cc1ccccc1 (stereo not drawn) [Phenoxybenzamine]
- inhibition at 10 µM [1, 14]: 8%
- inhibition at 10 µM [2, 15]: -5%
- Quadrant (FIG. 5b) [3, 16]: Q4
- Fibrin % cell toxicity (primary rat microglia [4]; rat): 1%
- LPS % cell toxicity (primary rat microglia [5]; rat): 0%

SMILES: CCN(CC)CC#CCOC(=O)C(O)(c1ccccc1)C1CCCCC1 (stereo not drawn) [Oxybutynin]
- inhibition at 10 µM [1]: -9%
- inhibition at 10 µM [2, 17]: 0%
- Quadrant (FIG. 5b) [3]: Q4
- Fibrin % cell toxicity (primary rat microglia [4]; rat): 0%
- LPS % cell toxicity (primary rat microglia [5]; rat): 1%

SMILES: COP(=O)(OC)OC=C(Cl)Cl [Dichlorvos]
- inhibition at 10 µM [1, 6]: -1%
- inhibition at 10 µM [2, 7]: 19%
- Quadrant (FIG. 5b) [3, 8]: Q4
- Fibrin % cell toxicity (primary rat microglia [4]; rat): 1%
- LPS % cell toxicity (primary rat microglia [5]; rat): 1%

SMILES: CC(=O)Nc1ccc(S(=O)(=O)c2ccc(NC(C)=O)cc2)cc1 [Acedapsone]
- inhibition at 10 µM [1]: 0%
- inhibition at 10 µM [2, 13]: 4%
- Quadrant (FIG. 5b) [3]: Q4
- Fibrin % cell toxicity (primary rat microglia [4]; rat): 0%
- LPS % cell toxicity (primary rat microglia [5]; rat): 0%

SMILES: Oc1c(Cl)cc(Cl)c2cccnc12 [Chloroxine]
- inhibition at 10 µM [1, 18]: -17%
- inhibition at 10 µM [2, 19]: 8%
- Quadrant (FIG. 5b) ([3]; primary HTS, 10 μM): Q4
- Fibrin % cell toxicity (primary rat microglia [4]; rat): 1%
- LPS % cell toxicity (primary rat microglia [5]; rat): 0%

SMILES: CC(C)(C)NC[C@H](O)COc1ccccc1C1CCCC1 [Penbutolol]
- inhibition at 10 µM [1, 14]: -8%
- inhibition at 10 µM [2, 15]: 17%
- Quadrant (FIG. 5b) [3, 16]: Q4
- Fibrin % cell toxicity (primary rat microglia [4]; rat): 1%
- LPS % cell toxicity (primary rat microglia [5]; rat): 0%

SMILES: Nc1nc2[nH]cc(CCc3ccc(C(=O)N[C@@H](CCC(=O)O)C(=O)O)cc3)c2c(=O)[nH]1 [Pemetrexed]
- inhibition at 10 µM [1, 14]: -8%
- inhibition at 10 µM [2, 15]: 9%
- Quadrant (FIG. 5b) [3, 16]: Q4
- Fibrin % cell toxicity (primary rat microglia [4]; rat): 0%
- LPS % cell toxicity (primary rat microglia [5]; rat): 0%

SMILES: CC(C)c1nc(CN(C)C(=O)N[C@H](C(=O)N[C@@H](Cc2ccccc2)C[C@H](O)[C@H](Cc2ccccc2)NC(=O)OCc2cncs2)C(C)C)cs1 [Ritonavir]
- inhibition at 10 µM [1, 14]: -8%
- inhibition at 10 µM [2, 15]: 11%
- Quadrant (FIG. 5b) [3, 16]: Q4
- Fibrin % cell toxicity (primary rat microglia [4]; rat): 0%
- LPS % cell toxicity (primary rat microglia [5]; rat): 0%

SMILES: COC(=O)[C@H](c1ccccc1Cl)N1CCc2sccc2C1 [Clopidogrel]
- inhibition at 10 µM [1]: -24%
- inhibition at 10 µM [2, 13]: 7%
- Quadrant (FIG. 5b) [3]: Q4
- Fibrin % cell toxicity (primary rat microglia [4]; rat): 1%
- LPS % cell toxicity (primary rat microglia [5]; rat): 0%

SMILES: Nc1ncn([C@@H]2O[C@H](CO)[C@@H](O)[C@H]2O)c(=O)n1 [5-azacytidine, Azacitidine]
- Fibrin % inhibition [1, 6]: 9%
- LPS % inhibition ([2]; primary microglia HTS, LPS stimulation, compounds at 10 μM): −7%
- Quadrant (FIG. 5b) [3, 9]: Q4
- Fibrin % cell toxicity (primary rat microglia [4]): 1%
- LPS % cell toxicity (primary rat microglia [5]): 0%

SMILES: Nc1ccc(S(=O)(=O)Nc2nccs2)cc1 [Sulfathiazole]
- inhibition at 10 µM [1, 10]: -17%
- inhibition at 10 µM [2, 11]: 9%
- Quadrant (FIG. 5b) [3, 12]: Q4
- Fibrin % cell toxicity (primary rat microglia [4]; rat): 0%
- LPS % cell toxicity (primary rat microglia [5]; rat): 0%

SMILES: CC(C)=CC1C(C(=O)OCc2cccc(Oc3ccccc3)c2)C1(C)C (stereo not drawn) [Phenothrin]
- inhibition at 10 µM [1, 14]: -50%
- inhibition at 10 µM [2, 15]: 11%
- Quadrant (FIG. 5b) [3, 16]: Q4
- Fibrin % cell toxicity (primary rat microglia [4]; rat): 0%
- LPS % cell toxicity (primary rat microglia [5]; rat): 0%

Source: patent publication US20210330611A1, “THERAPY FOR NEUROLOGICAL DISEASES/DISORDERS” (priority 2020, published 2021)
